Where no end group is shown, it is not given here.

These results are taken from publication PMC9481538, “The interaction between LC8 and LCA5 reveals a novel oligomerization function of LC8 in the ciliary-centrosome system” (Scientific Reports, 2022).

For assay [1], the target named is T1, LC8 (Homo sapiens, UniProt Q96FJ2).
T1 construct: 6xHis (N); made in house; host or cells: E. coli BL21 (DE3) Rosetta
Description: direct fluorescence polarization titration of labeled BMF peptide with LC8. The assay is classed as binding. The conditions noted are these: 50 nM FITC-labeled BMF, PBS, 2 mM TCEP, 0.05% Brij, 25 °C. As for the experimental part:
Fluorescence polarization experiments were carried out at 25 °C in PBS supplemented by 2 mM TCEP and 0.05% Brij using a Synergy H4 (BioTek Instruments) plate reader. N-terminally fluorescein 5-isothiocyanate (FITC) labeled, known binding peptide of LC8, BMF (TSQEDKATQTL) was used as a reporter peptide to form LC8-BMF complex and LCA5 was applied to compete the BMF peptide. Briefly, 50 nM labeled BMF peptide was mixed with LC8 in a concentration to achieve 80% saturation, determined by direct titration (12 μM at 80% saturation). Subsequently, the above-mentioned complex was titrated with a two-fold dilution series of competitor LCA5 peptide (DLCTKGVQTME) (start at 500 μM) and the decrease of polarization was recorded. To determine the Kd of the LCA5-peptide-LC8 complex, first the Kd of the BMF-LC8 complex was calculated. The polarization signal recorded at direct titration of BMF peptide with LC8 was plotted against the concentration of LC8. Then the Kd of the BMF-LC8 complex was calculated by the fitting of a direct binding equation in Origin 8. To determinate the Kd of the competitor peptide, the measured polarization was plotted against the concentration of LCA5 peptide in the competitive titration and the data was fitted by the competitive binding equation in Origin 8 where Kd of the BMF-LC8 complex was one of the parameters of the competitive equation. […]
In general terms: In fluorescence polarisation assays a small probe gives low polarisation when free and higher when bound to something large.

For a further assay, the system named is GST-fused LC8. Description: GST pull-down of LC8 and sLCA5. The assay is classed as binding. The note with it: GST-LC8 bait, MBP-, 6x-His-fused sLCA5 prey, PBS, 1 mM DTT, room temperature; result in words. On the procedure:
For the pull-down experiments, GST-fused LC8 was used as bait, and MBP-, 6x-His-fused LCA5 variants as prey. For controls, GST and MBP were used. Proteins were expressed in 100 ml cultures of E. coli BL21 (DE3) Rosetta cells as described above. Cells were harvested, resuspended in 5 ml PBS supplemented with 1 mg/ml lysozyme and 1 mM DTT, sonicated and clarified by centrifugation. 20 μl of Glutathione Sepharose 4B (Macherey–Nagel) (75%) resin was used for each experiment. Baits were incubated with the resin for 1 h at room temperature, then washed with PBS supplemented with 1 mM DTT. Prey proteins were added and incubated for one hour. The beads were washed and eluted by boiling in a 2 × SDS sample buffer and analyzed in tricine SDS page according to the protocol of Schagger et al[43].

The target in assay [2] is T1, LC8. Description: LC8 binding of the second (CQS) motif at the peptide level. The conditions noted are these: residues 317–324 of LCA5; method not stated; result in words. On the procedure: LC8 and MBP-fused LCA5 constructs were prepared in PBS supplemented with 1 mM TCEP. Before measurement, protein samples were dialyzed overnight in PBS pH 7.4 (Orange Scientific, OrDial D14 membrane). Peptides were diluted from stock with the buffer used for dialysis. The concentration of samples was determined based on absorbance at 280 nm in the case of proteins, and 205 nm for the peptide. Experiments were performed using MicroCal PEAQ-ITC (Malvern Panalytical), LCA5 peptides were measured at 25 °C, proteins were analyzed at 37 °C. Lebercilin peptide was injected into the cell 18 times 2 μl volumes, with 5 min timing between injections. […] The results were evaluated using MicroCal PEAQ-ITC Analysis Software.
Fluorescence polarization experiments were carried out at 25 °C in PBS supplemented by 2 mM TCEP and 0.05% Brij using a Synergy H4 (BioTek Instruments) plate reader. […] Briefly, 50 nM labeled BMF peptide was mixed with LC8 in a concentration to achieve 80% saturation, determined by direct titration (12 μM at 80% saturation). Subsequently, the above-mentioned complex was titrated with a two-fold dilution series of competitor LCA5 peptide (DLCTKGVQTME) (start at 500 μM) and the decrease of polarization was recorded. To determine the Kd of the LCA5-peptide-LC8 complex, first the Kd of the BMF-LC8 complex was calculated. […]

The target in assay [3] is T1, LC8. The conditions noted are these: literature, ref (6)-(10) of supplement, cited from earlier work. The text has this:
According to the standard model of LC8 interactions, the dimeric interface of LC8 presents two interaction sites for partners which also form dimers, implying a 1:1 stoichiometry. Partners with two adjacent binding motifs, like ANA2, follow a 1:2 stoichiometry by binding two LC8[18]. Intriguingly, we observed a 2:1 LCA5:LC8 stoichiometry for the ΔCQS and the ΔVQT mutants, which means that one LC8 dimer binds four LCA5 chains (Supplementary Table S1). A reasonable interpretation is that the native LCA5 is dimeric and thus a pair of LCA5 dimers bind to one dimeric LC8. In such a situation, one i ... || page 10: Composition of complexes Number of LC8 Number of Ratio of LCA5 LC8 binding monomeric binding monomeric LC8 in monomers to LC8 Gene name sites partners in complex complex monomers SWA (6) 1 2 2 1:1 DYNC1I1 (7) 1 2 2 1:1 WDR34-WDR60 3 1+1 6 1:3 (8) ANA2 (9) 2 2 4 1:2 ASCIZ (10) 11 2 22 1:11 sLCA5-WT 2 4 4 1:1 sLCA5-single 1 4 2 2:1 mutants Supplementary Table S1. Stoichiometries of various LC8 binding partners in complex with LC8. Known LC8 binding partners according to literature data always form dimers upon LC8 binding. The stoichiometry is basically 1:1 in case of one LC8 binding sit ...

Assay [4] concerns the target T1, LC8. Description: isothermal titration calorimetry, LCA5 peptide injected to LC8. The assay is classed as binding. The note with it: MicroCal PEAQ-ITC, PBS pH 7.4, 1 mM TCEP, 25 °C; peptide injected 18 x 2 μl into LC8. On the procedure:
LC8 and MBP-fused LCA5 constructs were prepared in PBS supplemented with 1 mM TCEP. Before measurement, protein samples were dialyzed overnight in PBS pH 7.4 (Orange Scientific, OrDial D14 membrane). Peptides were diluted from stock with the buffer used for dialysis. The concentration of samples was determined based on absorbance at 280 nm in the case of proteins, and 205 nm for the peptide. Experiments were performed using MicroCal PEAQ-ITC (Malvern Panalytical), LCA5 peptides were measured at 25 °C, proteins were analyzed at 37 °C. Lebercilin peptide was injected into the cell 18 times 2 μl volumes, with 5 min timing between injections. In case of the protein, LCA5 was placed in the sample cell, and LC8 was injected during 37 injections, 1 μl each. The results were evaluated using MicroCal PEAQ-ITC Analysis Software.
On the technique in general: In ITC the heat of successive injections is recorded.

T1 sequence (Q96FJ2 whole entry): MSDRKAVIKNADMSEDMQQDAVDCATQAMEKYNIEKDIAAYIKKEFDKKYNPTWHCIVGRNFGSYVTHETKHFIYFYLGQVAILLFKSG

Regarding TSQEDKATQTL [BMF], on LC8 [1], the “LC8 concentration at 80% saturation of labeled BMF peptide” value was 12 µM.

As for “CAAAAAAM: sLCA5 with further alanine mutations introduced into the VQT motif”, the “interaction with LC8 (GST pull-down)” value with GST-fused LC8 is on record as “persisted despite the mutations”.

KNAACQSD: on LC8 [2], the “binding of the second motif to LC8 at the peptide level” value is “could not be verified at the peptide level”.

Take “WDR34-WDR60: known LC8 binding partner, literature”: in the assay with LC8 [3] (composition of complexes), the “Number of monomeric LC8 in complex” value is listed as 6 and the “Number of monomeric binding partners in complex” value is 1+1. In addition, in the assay with LC8 [3], the LC8 binding sites is 3.

A word on the Kd: it is the free concentration of one partner at which half of the binding sites on the other are occupied at equilibrium, for simple one-to-one binding. In turn, DLCTKGVQTME [LCA5 peptide] had a Kd on LC8 [4] of 2600 nM. That is a single-digit micromolar value.
